Test results from patent publication US11896574B2, “Treatment of metabolic disorders in feline animals” (Boehringer Ingelheim Vetmedica GmbH, priority 2013, dated 2024).

Test: Physicochemical properties of the crystalline complex

With `N#Cc1ccc([C@@H]2O[C@H](CO)[C@@H](O)[C@H](O)[C@H]2O)cc1Cc1ccc(C2CC2)cc1.O=C(O)[C@@H]1CCCN1` [crystalline complex] the “tendency to absorb moisture” value was “does not show a high tendency to absorb moisture” and the “physical and chemical stability” value (various environmental conditions and during production of a medicament) was “high physical and chemical stability”.
